Source: ChEMBL document CHEMBL3132753, “Synthesis and biological evaluation of 2-acetamidothiophene-3-carboxamide derivatives against Leishmania donovani” (Medchemcomm, 2014)

Columns and labels:
Leishmania donovani [1] = experiment: Antileishmanial activity against amastigote stage of Leishmania donovani MHOM/ET/67/HU3 infected in human THP1 cells assessed as parasite clearance after 3 days by Draq5 staining-based confocal microscopic analysis; assay type: functional, organism-based; conditions: MHOM/ET/67/HU3, THP-1, 72 h
Leishmania donovani [2] = experiment: Antileishmanial activity against promastigote stage of Leishmania donovani MHOM/ET/67/HU3 assessed as parasite viability after 48 hrs by resazurin dye-based assay; assay type: functional, organism-based; conditions: MHOM/ET/67/HU3, 48 h
[3] = Cytotoxicity against human THP1 cells; assay type: cell-based; conditions: THP-1 cells
[4] = Selectivity index, ratio of CC50 for human THP1 cells to EC50 for amastigote stage of Leishmania donovani MHOM/ET/67/HU3; assay type: toxicity, cell-based; conditions: THP-1 cells, read-out: Ratio CC50/EC50

EC50 (Leishmania donovani [1]) [µM]	SMILES	EC50 (Leishmania donovani [2]) [µM]	CC50 [3] [µM]	selectivity ratio [4]
0.25	C[C@@H]1[C@H](O)[C@@H](C)/C=C/C=C/C=C/C=C/C=C/C=C/C=C/[C@H](O[C@@H]2O[C@H](C)[C@@H](O)[C@H](N)[C@@H]2O)C[C@@H]2O[C@](O)(C[C@@H](O)C[C@@H](O)[C@H](O)CC[C@@H](O)C[C@@H](O)CC(=O)O[C@H]1C)C[C@H](O)[C@H]2C(=O)O [AMPHOTERICIN B]	0.18	7.57	30.2
> 50	COc1ccc(NC(=O)c2c(NC(=O)c3ccccc3)sc3c2CCCCC3)cc1		> 50	
> 50	Cc1ccc(NC(=O)c2c(NC(=O)C(F)(F)F)sc3c2CCCCC3)cc1		> 50	
10.1	COc1cccc(NC(=O)c2c(NC(=O)C(F)(F)F)sc3c2CCCCC3)c1	21.5	37.6	3.71
8.53	N#Cc1ccc(NC(=O)c2c(NC(=O)C(F)(F)F)sc3c2CCCCC3)cc1	> 50	9.11	1.06
> 50	CC(C)(C)NC(=O)c1c(NC(=O)C(F)(F)F)sc2c1CCCCC2		> 50	
> 50	COc1ccc(CNC(=O)c2c(NC(=O)C(F)(F)F)sc3c2CCCCC3)cc1	> 50	> 50	
17.6	O=C(Nc1ccc(C(F)(F)F)cc1)c1c(NC(=O)C(F)(F)F)sc2c1CCCCC2	> 50	17.2	0.9
6.41	COc1ccc(NC(=O)c2c(NC(=O)C(F)(F)F)sc3c2CCCCC3)cc1	> 50	> 50	> 7.8
> 50	COC(=O)Nc1sc2c(c1C(=O)Nc1ccc(OC)cc1)CCCCC2		> 50	
9.85	O=C(Nc1ccc(OC(F)(F)F)cc1)c1c(NC(=O)C(F)(F)F)sc2c1CCCCC2	> 50	11.9	1.2
10.1	COc1ccc(NC(=O)c2c(NC(=O)C(F)(F)F)sc(C)c2C)cc1	> 50	> 50	> 4.95
> 50	COc1ccc(NC(=O)c2c(NC(=O)C(F)(F)F)sc3c2CCC3)cc1		> 50	
7.1	CCCCCCCCCCCCCCCCOP(=O)([O-])OCC[N+](C)(C)C [MILTEFOSINE]	7.4	22.7	3.19
> 50	COc1ccc(NC(=O)c2c(NC(C)=O)sc3c2CCCCC3)cc1	> 50	> 50	
14.6	COc1ccc(NC(=O)c2c(NC(=O)C(F)(F)F)sc3c2CCCC3)cc1	> 50	> 50	> 3.42
> 50	COc1ccccc1NC(=O)c1c(NC(=O)C(F)(F)F)sc2c1CCCCC2	42	> 50	
> 50	COc1ccc(NC(=O)c2ccsc2NC(=O)C(F)(F)F)cc1	> 50	> 50	
> 50	O=C(Nc1ccc(Cl)cc1)c1c(NC(=O)C(F)(F)F)sc2c1CCCCC2		> 50	
> 50	CC(=O)Nc1sc2c(c1C(=O)OC(C)(C)C)CCCCC2		> 50	
> 50	CC(C)(C)OC(=O)c1c(N)sc2c1CCCCC2		> 50	
